Measurements reported in patent publication US10533010B2, “Substituted indole Mcl-1 inhibitors” (Vanderbilt University, priority 2014, dated 2020).

target: recombinant Mcl-1 (residues 172-327) (Homo sapiens (Human), UniProt Q07820); assay: Fluorescence polarization anisotropy competition assay (FITC-Bak or FITC-Bim BH3 peptide) with Mcl-1; assay type: binding; settings: Table 2; Ki bins given in nM; FITC-Bak or FITC-Bim peptide competition; Ki converted from IC50; read-out: Ki for Inhibition of Mcl-1
Sequence (Q07820 172-327): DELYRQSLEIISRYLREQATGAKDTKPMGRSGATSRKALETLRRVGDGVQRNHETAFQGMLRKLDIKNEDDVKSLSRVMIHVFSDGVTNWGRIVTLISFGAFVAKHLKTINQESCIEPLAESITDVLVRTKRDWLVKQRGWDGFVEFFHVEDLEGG

| Structure (SMILES) | Ki [nM] |
| --- | --- |
| Cc1cc(OCCCc2c3n(c4c(-c5c(C)nn(C)c5C)c(Cl)ccc24)[C@H](C)CN(Cc2ccc(C(=O)O)cc2)C3=O)cc(C)c1Cl [I-154, (R)-4-((7-chloro-10-(3-(4-chloro-3,5-dimethylphenoxy)propyl)-4-methyl-1-oxo-6-(1,3,5-trimethyl-1H-pyrazol-4-yl)-3,4-dihydropyrazino[1,2-a]indol-2(1H)-yl)methyl)benzoic acid] | < 50 |
| Cc1cc(OCCCc2c(C(=O)NCc3ccc(C(=O)N[C@@H](Cc4ccccc4)C(=O)O)o3)[nH]c3c(-c4c(C)nn(C)c4C)cccc23)cc(C)c1Cl [I-271, (5-((3-(3-(4-chloro-3,5-dimethylphenoxy)propyl)-7-(1,3,5-trimethyl-1H-pyrazol-4-yl)-1H-indole-2-carboxamido)methyl)furan-2-carbonyl)-L-phenylalanine] | < 50 |
| Cc1cc(OCCCc2c3n(c4c(-c5c(C)nn(C)c5C)c(Cl)ccc24)CCCN(C2SC(=O)NC2C(=O)O)C3=O)cc(C)c1Cl (stereo not shown) [I-346, 5-(8-chloro-11-(3-(4-chloro-3,5-dimethylphenoxy)propyl)-1-oxo-7-(1,3,5-trimethyl-1H-pyrazol-4-yl)-4,5-dihydro-1H-[1,4]diazepino[1,2-a]indol-2(3H)-yl)-2-oxothiazolidine-4-carboxylic acid] | < 50 |
| Cc1cc(OCCCc2c3n(c4c(-c5c(C)nn(C)c5C)c(Cl)ccc24)[C@@H](C)CN(c2ccc(C(=O)O)cc2)C3=O)cc(C)c1Cl [I-166, (S)-4-(7-chloro-10-(3-(4-chloro-3,5-dimethylphenoxy)propyl)-4-methyl-1-oxo-6-(1,3,5-trimethyl-1H-pyrazol-4-yl)-3,4-dihydropyrazino[1,2-a]indol-2(1H)-yl)benzoic acid] | < 50 |
| Cc1cc(OCCCc2c(C(=O)NCCC(=O)NS(=O)(=O)c3ccccc3C#N)[nH]c3ccccc23)cc(C)c1Cl [I-18, 3-(3-(4-chloro-3,5-dimethylphenoxy)propyl)-N-(3-((2-cyanophenyl)sulfonamido)-3-oxopropyl)-1H-indole-2-carboxamide] | 301 to 500 |
| Cc1cc(OCCCc2c3n(c4c(-c5c(C)nn(C)c5C)c(Cl)ccc24)CCCN(c2cc(C(=O)O)cc4c2c(Cl)cn4C)C3=O)cc(C)c1Cl [I-255, 3-chloro-4-(8-chloro-11-(3-(4-chloro-3,5-dimethylphenoxy)propyl)-1-oxo-7-(1,3,5-trimethyl-1H-pyrazol-4-yl)-4,5-dihydro-1H-[1,4]diazepino[1,2-a]indol-2(3H)-yl)-1-methyl-1H-indole-6-carboxylic acid] | < 50 |
| Cc1cc(OCCCc2c(C(=O)NCc3cc(C(=O)O)cc(N4CCN(C(=O)CC(C)C)CC4)n3)[nH]c3c(-c4c(C)nn(C)c4C)c(Cl)ccc23)cc(C)c1Cl [I-284, 2-((6-chloro-3-(3-(4-chloro-3,5-dimethylphenoxy)propyl)-7-(1,3,5-trimethyl-1H-pyrazol-4-yl)-1H-indole-2-carboxamido)methyl)-6-(4-(3-methylbutanoyl)piperazin-1-yl)isonicotinic acid] | < 50 |
| Cc1cc(OCCCc2c3n(c4c(-c5c(C)nn(CC(=O)O)c5C)c(Cl)ccc24)CCCNC3=O)cc(C)c1Cl [I-295, 2-(4-(8-chloro-11-(3-(4-chloro-3,5-dimethylphenoxy)propyl)-1-oxo-2,3,4,5-tetrahydro-1H-[1,4]diazepino[1,2-a]indol-7-yl)-3,5-dimethyl-1H-pyrazol-1-yl)acetic acid] | < 50 |
| Cc1cc(OCCCc2c(C(=O)NCc3cc(C(=O)O)n(Cc4ccccc4)c3)[nH]c3c(-c4c(C)nn(C)c4C)cccc23)cc(C)c1Cl [I-75, 1-benzyl-4-((3-(3-(4-chloro-3,5-dimethylphenoxy)propyl)-7-(1,3,5-trimethyl-1H-pyrazol-4-yl)-1H-indole-2-carboxamido)methyl)-1H-pyrrole-2-carboxylic acid] | 51 to 100 |
| Cc1cc(OCCCc2c3n(c4c(-c5c(C)nn(C)c5C)c(Cl)ccc24)CCN(c2cc(NC4CCOCC4)cc(C(=O)O)c2)C3=O)cc(C)c1Cl [I-214, 3-(7-chloro-10-(3-(4-chloro-3,5-dimethylphenoxy)propyl)-1-oxo-6-(1,3,5-trimethyl-1H-pyrazol-4-yl)-3,4-dihydropyrazino[1,2-a]indol-2(1H)-yl)-5-((tetrahydro-2H-pyran-4-yl)amino)benzoic acid] | < 50 |
| Cc1cc(OCCCc2c3n(c4c(-c5c(C)nn(C)c5C)c(Cl)ccc24)C(C)CN(Cc2cccc(C(=O)O)c2)C3=O)cc(C)c1Cl (stereo not shown) [I-131, 3-((7-chloro-10-(3-(4-chloro-3,5-dimethylphenoxy)propyl)-4-methyl-1-oxo-6-(1,3,5-trimethyl-1H-pyrazol-4-yl)-3,4-dihydropyrazino[1,2-a]indol-2(1H)-yl)methyl)benzoic acid] | < 50 |
| Cc1cc(OCCCc2c(C(=O)N[C@H]3CCC[C@H]3C(=O)O)[nH]c3c(-c4c(C)nn(C)c4C)c(Cl)ccc23)cc(C)c1Cl [I-334, (1R,2S)-2-(6-chloro-3-(3-(4-chloro-3,5-dimethylphenoxy)propyl)-7-(1,3,5-trimethyl-1H-pyrazol-4-yl)-1H-indole-2-carboxamido)cyclopentane-1-carboxylic acid] | < 50 |
| CCOC(=O)c1ccc(CNC(=O)c2c(CCCOc3cc(C)c(Cl)c(C)c3)c3cccc(-c4c(C)nn(C)c4C)c3n2C)o1 [I-65, ethyl 5-((3-(3-(4-chloro-3,5-dimethylphenoxy)propyl)-1-methyl-7-(1,3,5-trimethyl-1H-pyrazol-4-yl)-1H-indole-2-carboxamido)methyl)furan-2-carboxylate] | 301 to 500 |
| Cc1cc(OCCCc2c3n(c4c(-c5c(C)nn(C)c5C)c(Cl)ccc24)[C@@H](C)CN(c2cc(C(=O)O)c4ccn(C)c4c2)C3=O)cc(C)c1Cl [I-169, (S)-6-(7-chloro-10-(3-(4-chloro-3,5-dimethylphenoxy)propyl)-4-methyl-1-oxo-6-(1,3,5-trimethyl-1H-pyrazol-4-yl)-3,4-dihydropyrazino[1,2-a]indol-2(1H)-yl)-1-methyl-1H-indole-4-carboxylic acid] | < 50 |
| Cc1cc(OCCCc2c(C(=O)NCCC(=O)NS(=O)(=O)c3ccccc3[N+](=O)[O-])[nH]c3ccccc23)cc(C)c1Cl [I-20, 3-(3-(4-chloro-3,5-dimethylphenoxy)propyl)-N-(3-((2-nitrophenyl)sulfonamido)-3-oxopropyl)-1H-indole-2-carboxamide] | 101 to 299 |
| Cc1cc(OCCCc2c(C(=O)N(Cc3ccc(C(F)(F)F)cc3)c3ccc(S(N)(=O)=O)cn3)[nH]c3ccccc23)cc(C)c1Cl [I-49, 3-(3-(4-chloro-3,5-dimethylphenoxy)propyl)-N-(5-sulfamoylpyridin-2-yl)-N-(4-(trifluoromethyl)benzyl)-1H-indole-2-carboxamide] | 101 to 299 |
| Cc1cc(OCCCc2c3n(c4c(-c5c(C)nn(C)c5C)c(Cl)ccc24)C(C)CN(Cc2ccc(C(=O)O)cc2)C3=O)cc(C)c1Cl (stereo not shown) [I-130, 4-((7-chloro-10-(3-(4-chloro-3,5-dimethylphenoxy)propyl)-4-methyl-1-oxo-6-(1,3,5-trimethyl-1H-pyrazol-4-yl)-3,4-dihydropyrazino[1,2-a]indol-2(1H)-yl)methyl)benzoic acid] | < 50 |
| Cc1cc(OCCCc2c(C(=O)Nc3cccc(CC(=O)O)c3)[nH]c3c(-c4c(C)nn(C)c4C)cccc23)cc(C)c1Cl [I-206, 2-(3-(3-(3-(4-chloro-3,5-dimethylphenoxy)propyl)-7-(1,3,5-trimethyl-1H-pyrazol-4-yl)-1H-indole-2-carboxamido)phenyl)acetic acid] | < 50 |
| Cc1cc(OCCCc2c(C(=O)N[C@H]3CCC[C@H]3C(=O)O)[nH]c3c(-c4c(C)nn(C)c4C)cccc23)cc(C)c1Cl [I-314, (1R,2S)-2-(3-(3-(4-chloro-3,5-dimethylphenoxy)propyl)-7-(1,3,5-trimethyl-1H-pyrazol-4-yl)-1H-indole-2-carboxamido)cyclopentane-1-carboxylic acid] | 51 to 100 |
| Cc1cc(OCCCc2c(C(=O)Nc3cccc(C(=O)NS(=O)(=O)c4ccc([N+](=O)[O-])cc4)c3)[nH]c3c(-c4cccnc4C)cccc23)cc(C)c1Cl [I-68, 3-(3-(4-chloro-3,5-dimethylphenoxy)propyl)-7-(2-methylpyridin-3-yl)-N-(3-(((4-nitrophenyl)sulfonyl)carbamoyl)phenyl)-1H-indole-2-carboxamide] | 51 to 100 |
| Cc1cc(OCCCc2c(C(=O)Nc3cc(C(=O)O)cc(N(C)C)c3)[nH]c3c(-c4c(C)nn(C)c4C)c(Cl)ccc23)cc(C)c1Cl [I-215, 3-(6-chloro-3-(3-(4-chloro-3,5-dimethylphenoxy)propyl)-7-(1,3,5-trimethyl-1H-pyrazol-4-yl)-1H-indole-2-carboxamido)-5-(dimethylamino)benzoic acid] | < 50 |
| Cc1cc(OCCCc2c(C(=O)NCCS(=O)(=O)NC(=O)CC34CC5CC(CC(C5)C3)C4)[nH]c3ccccc23)cc(C)c1Cl [I-54, N-(2-(N-(2-((3r,5r,7r)-adamantan-1-yl)acetyl)sulfamoyl)ethyl)-3-(3-(4-chloro-3,5-dimethylphenoxy)propyl)-1H-indole-2-carboxamide] | 501 to 999 |
| Cc1cc(OCCCc2c3n(c4c(-c5c(C)nn(C)c5C)c(Cl)ccc24)C[C@@H](C)N(c2cccc(C(=O)O)c2)C3=O)cc(C)c1Cl [I-157, (R)-3-(7-chloro-10-(3-(4-chloro-3,5-dimethylphenoxy)propyl)-3-methyl-1-oxo-6-(1,3,5-trimethyl-1H-pyrazol-4-yl)-3,4-dihydropyrazino[1,2-a]indol-2(1H)-yl)benzoic acid] | < 50 |
| Cc1cc(OCCCc2c(C(=O)N3CCN(c4ccc(C(=O)O)cc4)CC3)n(C)c3c(-c4c(C)nn(C)c4C)c(Cl)ccc23)cc(C)c1Cl [I-339, 4-(4-(6-chloro-3-(3-(4-chloro-3,5-dimethylphenoxy)propyl)-1-methyl-7-(1,3,5-trimethyl-1H-pyrazol-4-yl)-1H-indole-2-carbonyl)piperazin-1-yl)benzoic acid] | < 50 |
| Cc1cc(OCCCc2c(C(=O)NCc3ccc(C(=O)O)cc3)n(CCN3CCOCC3)c3c(-c4c(C)nn(C)c4C)c(Cl)ccc23)cc(C)c1Cl [I-373, 4-((6-chloro-3-(3-(4-chloro-3,5-dimethylphenoxy)propyl)-1-(2-morpholinoethyl)-7-(1,3,5-trimethyl-1H-pyrazol-4-yl)-1H-indole-2-carboxamido)methyl)benzoic acid] | < 50 |
